Results taken from ChEMBL document CHEMBL1201862, “PubChem BioAssay data set” (2004).
Active and inactive are the calls of the source. The rule behind the calls is not given here.

Legend:
[1] = biological target: T1, High affinity choline transporter 1 (Homo sapiens, UniProt Q9GZV3); assay: CHT inhibitors, dose response, cell-based, 5-point CRC, membrane potential dye (AID 504840); assay type: functional
T1 sequence (Q9GZV3 whole entry): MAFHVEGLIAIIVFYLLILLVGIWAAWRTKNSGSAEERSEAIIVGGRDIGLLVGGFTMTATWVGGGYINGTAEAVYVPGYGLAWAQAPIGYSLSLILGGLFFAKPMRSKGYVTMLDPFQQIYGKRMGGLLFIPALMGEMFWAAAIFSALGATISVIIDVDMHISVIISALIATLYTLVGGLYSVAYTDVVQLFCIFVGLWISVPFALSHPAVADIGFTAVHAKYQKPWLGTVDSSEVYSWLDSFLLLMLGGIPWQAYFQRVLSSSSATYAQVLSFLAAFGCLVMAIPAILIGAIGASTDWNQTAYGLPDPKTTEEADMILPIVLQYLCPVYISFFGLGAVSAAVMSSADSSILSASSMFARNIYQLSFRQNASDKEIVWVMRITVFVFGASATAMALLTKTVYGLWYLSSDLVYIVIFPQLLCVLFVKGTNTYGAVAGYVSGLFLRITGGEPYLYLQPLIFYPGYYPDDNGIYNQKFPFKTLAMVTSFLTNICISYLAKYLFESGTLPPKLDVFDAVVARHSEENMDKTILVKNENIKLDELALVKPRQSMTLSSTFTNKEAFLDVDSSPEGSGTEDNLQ

[2] = biological target: T1, High affinity choline transporter 1; assay: CHT inhibitors, dose response, cell-based, 10-point CRC, membrane potential dye (AID 588401); assay type: functional;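 note: membrane potential dye fluorescence of choline-evoked depolarization via CHT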

## Cc1nnc(NCc2cccc(Cl)c2)c2ccccc12
[1]
  IC50: 9.8 µM (active)
[2]
  IC50: 4.74 µM (active)
